Experimental data taken from paper PMC10959927, “Platinum iodido drugs show potential anti-tumor activity, affecting cancer cell metabolism and inducing ROS and senescence in gastrointestinal cancer cells” (Communications Biology, 2024).
Values joined by “and” are separate entries in the source; they are usually repeats but may differ in a detail not shown here. Equal values may be shown once. Read-outs that look alike come from different tables or passages of the source.

What was measured:
PANC1 cells [1] = test: Flow cytometry mitochondrial mass and membrane potential (MitoTracker Green / CMXRos); assay type: cell-based, human
Protocol: (§1) We used flow cytometry to study the mitochondrial mass, mitochondrial membrane potential (ΔΨm) and cellular senescence of untreated and treated cells. Cells (5 × 10^4) were seeded in 24-multiwell dishes and cultured overnight. […] Cells were tripsinized, stained with Mitoprobes and resuspended in Flow buffer [1X PBS; 3% Fetal Bovine Serum (v/v); 3 mM EDTA (v/v)] before analysis with a 4-laser Attune NxT Acoustic Cytometer (Thermo Fisher Scientific). For Mitoprobe assays, […] DAPI (Sigma) was used to exclude dead cells. Data were analyzed with FlowJo 9.3 software (Tree Star Inc., Ashland, OR). For mitochondrial mass and ΔΨm measurement, Mitotracker Green (MTGreen, M7514, Invitrogen) and Mitotracker Red CMXRos (CMXROS, M7512, Invitrogen) were used, respectively. Probes were incubated with cells for 30 min at 37 °C at a concentration of 100 nM (MTGreen) and 20 nM (CMXROS), and fluorescence was detected using the filters (Ex488nm/Em530/30) BL1 and (Ex561nm/Em585/16) YL1, respectively. To determine mitochondria functionality, the ratio between ΔΨm (MitoTracker Red CMXRos) versus Mit. Mass (MitoTracker Green) was calculated. The gating strategy used in all the Flow Cytometry experiments is reflected in Fig.S10.

MKN45 cells [2] = test: as above; assay type: cell-based, human
Protocol: as §1

AGS cells [3] = test: as above; assay type: cell-based, human; details: fold change vs C, replicates
Protocol: as §1

HPDE cells = test: Cell viability, crystal violet staining, non-tumoral cells; details: for percentage of viable cells: 48 h
Protocol: (§2) Cell viability was assessed using a crystal violet-based staining method. […] The cells (2 × 10^5) were seeded in 24-multiwell dishes in 0.5 mL of complete medium and incubated overnight. […] After 48 h, cells were fixed with 1% glutaraldehyde (20–30 min), washed with distilled water, and stained with 0.1% crystal violet. […] IC50 were calculated by using GraphPad Prism (version 8.0). Nonlinear regression was used to fit the data to the log (inhibitor) versus response (variable slope).

CC2509 fibroblasts = test: as above; details: CC2509, 48 h
Protocol: as §2

PANC1 cells [4] = test: RT-qPCR gene expression (CDKN1A, IL6, MMP1, MAP2K3, SOD1, SOD2, CAT, MKI67, TNFRSF10D); assay type: cell-based, human
Protocol: (§3) Total cellular RNA was extracted using Tri-Reagent (Life Technologies), following the manufacturer’s instructions. One μg of total RNA was primed with random primers and cDNA synthesized with an M-MLV reverse transcriptase following the manufacturer’s instructions (Promega). Target genes were amplified using a SYBR Green polymerase chain reaction assay, working with the specific primer sets listed in Table 4.
(§4) Thermal cycling of the qPCR reaction was initiated with a denaturation step at 95 °C for 10 min. The process consisted of 40 cycles (denaturation at 95 °C for 15 sec, annealing at 60 °C for 30 sec, and elongation at 75 °C for 30 sec). PCR amplifications were carried out in a StepOne Real‐time PCR System (Applied Biosystems, 4376357). Relative mRNA levels were calculated by the delta-Ct method (2-ΔΔCt), where each 1-Ct difference equals a two-fold change in transcript abundance, using GAPDH as an endogenous gene reference. ΔΔCT represents the difference between the mean ΔCT value of the cells tested and the mean ΔCT value of the calibrator, both calculated for the same PCR run.

MKN45 cells [5] = test: as above; assay type: cell-based, human
Protocol: as §3, §4

AGS cells [6] = test: as above; assay type: cell-based, human
Protocol: as §3, §4

PANC1 cells [7] = test: Cell viability, crystal violet staining; details: for Cell Viability without NAC: PANC1 cells, Fig. S6A; for IC50: read-out: IC50 concentration (± SD) at 48 h, 48 h
Protocol: as §2

MKN45 cells [8] = test: Cell viability, crystal violet staining; details: for Cell Viability without NAC: MKN45 cells, Fig. S6A; for IC50: read-out: IC50 concentration (± SD) at 48 h, 48 h
Protocol: as §2

AGS cells [9] = test: Cell viability, crystal violet staining; details: for Cell Viability without NAC: AGS cells, Fig. S6A; for IC50: read-out: IC50 concentration (± SD) at 48 h, 48 h
Protocol: as §2

[10] = PANC1, fold change vs C, replicates
[11] = MKN45, fold change vs C, replicates
[12] = read-out: IC50 concentration (± SD) at 48 h in non-tumoral cell lines
[13] = PANC1, Fig. 3C, replicate values
[14] = MKN45, Fig. 3C, replicate values

CC(C)[NH][Pt@SP1]([I])([I])[NH]C(C)C [I6, cis-[PtI2(isopropylamine)2]]
Fold change ΔΨm/MM (PANC1 cells [1]; PANC1, IC50 doses 24 h, CMX-ROS/MitoGreen ratio vs untreated 1.0): 0.61 and 0.39 and 0.44
Fold change %CMXROS, ΔΨm (PANC1 cells [1]; [10]): 0.75 and 0.98 and 0.61
Fold change %MTGreen, MM (PANC1 cells [1]; [10]): 1.22 and 2.53 and 2.1
Fold change ΔΨm/MM (MKN45 cells [2]; MKN45, IC50 doses 24 h, CMX-ROS/MitoGreen ratio vs untreated 1.0): 0.26 and 0.21 and 0.27
Fold change %CMXROS, ΔΨm (MKN45 cells [2]; [11]): 0.24 and 0.19 and 0.3
Fold change %MTGreen, MM (MKN45 cells [2]; [11]): 0.93 and 0.91 and 1.1
Fold change %CMXROS, ΔΨm (AGS cells [3]): 0.58 and 0.29 and 0.42
Fold change %MTGreen, MM (AGS cells [3]): 0.83 and 0.75 and 1.298
percentage of viable cells (HPDE cells; dose 2.5 µM): 88.7955% and 72.4125% and 95.3401%
percentage of viable cells (HPDE cells; dose 5 µM): 78.4314% and 72.7203% and 72.6353%
percentage of viable cells (HPDE cells; dose 10 µM): 57.5163% and 55.8292% and 52.5038%
percentage of viable cells (HPDE cells; dose 25 µM): 22.9225% and 35.4367% and 19.9292%
percentage of viable cells (HPDE cells; dose 50 µM): 8.5901% and 14.6939% and 8.599%
IC50 (HPDE cells; [12]): 15 µM and 14.2 µM
percentage of viable cells (CC2509 fibroblasts; dose 2.5 µM): 101.369% and 68.5642% and 72.6415%
percentage of viable cells (CC2509 fibroblasts; dose 5 µM): 100.382% and 62.1377% and 89.6445%
percentage of viable cells (CC2509 fibroblasts; dose 10 µM): 50.1592% and 62.7776% and 90.9953%
percentage of viable cells (CC2509 fibroblasts; dose 25 µM): 52.2611% and 59.729% and 78.3886%
percentage of viable cells (CC2509 fibroblasts; dose 50 µM): 30.3822% and 34.0139% and 46.6351%
IC50 (CC2509 fibroblasts; [12]): 35 µM and 33.8 µM
MKI67 Fold change vs GAPDH (PANC1 cells [4]; PANC1, Fig. S4C): 1.187 fold change and 1.0074 fold change and 1.3984 fold change
TNFRSF10D Fold change vs GAPDH (PANC1 cells [4]; PANC1, Fig. S4C): 1.308 fold change and 1.177 fold change and 1.453 fold change
CAT (Fold change vs GAPDH) (PANC1 cells [4]; PANC1, mRNA vs Control = 1): 1.283 Fold change and 1.157 Fold change and 1.422 Fold change
SOD1 (Fold change vs GAPDH) (PANC1 cells [4]; PANC1, mRNA vs Control = 1): 1.212 Fold change and 1.267 Fold change and 1.413 Fold change
SOD2 (Fold change vs GAPDH) (PANC1 cells [4]; PANC1, mRNA vs Control = 1): 0.7792 Fold change and 0.7372 Fold change and 0.8236 Fold change
CDKN1A, Fold change vs GAPDH (PANC1 cells [4]; [13]): 0.7609 fold change and 0.6464 fold change and 0.8957 fold change
IL-6, Fold change vs GAPDH (PANC1 cells [4]; [13]): 2.029 fold change and 0.6879 fold change and 5.985 fold change
MMP-1, Fold change vs GAPDH (PANC1 cells [4]; [13]): 1.768 fold change and 1.572 fold change and 2.113 fold change
Fold change MAP2K3 vs GAPDH (PANC1 cells [4]; PANC1, Fig. 4B, replicate values): 1.382 fold change and 1.186 fold change and 1.609 fold change
MKI67 Fold change vs GAPDH (MKN45 cells [5]; MKN45, Fig. S4C): 0.2699 fold change and 0.2509 fold change and 0.2902 fold change
TNFRSF10D Fold change vs GAPDH (MKN45 cells [5]; MKN45, Fig. S4C): 0.3106 fold change and 0.2548 fold change and 0.3786 fold change
CAT (Fold change vs GAPDH) (MKN45 cells [5]; MKN45, mRNA vs Control = 1): 1.125 Fold change and 0.8671 Fold change and 1.459 Fold change
SOD1 (Fold change vs GAPDH) (MKN45 cells [5]; MKN45, mRNA vs Control = 1): 1.504 Fold change and 1.381 Fold change and 1.638 Fold change
SOD2 (Fold change vs GAPDH) (MKN45 cells [5]; MKN45, mRNA vs Control = 1): 2.631 Fold change and 2.276 Fold change and 3.26 Fold change
CDKN1A, Fold change vs GAPDH (MKN45 cells [5]; [14]): 1.257 fold change and 1.116 fold change and 1.417 fold change
IL-6, Fold change vs GAPDH (MKN45 cells [5]; [14]): 1.298 fold change and 0.9165 fold change and 1.735 fold change
MMP-1, Fold change vs GAPDH (MKN45 cells [5]; [14]): 2.795 fold change and 2.229 fold change and 3.504 fold change
Fold change MAP2K3 vs GAPDH (MKN45 cells [5]; MKN45, Fig. 4B, replicate values): 2.445 fold change and 2.003 fold change and 2.985 fold change
CDKN1A, Fold change vs GAPDH (AGS cells [6]; Fig. 3C, replicate values): 7.239 fold change and 5.782 fold change and 9.064 fold change
IL-6, Fold change vs GAPDH (AGS cells [6]; Fig. 3C, replicate values): 1.072 fold change and 0.8542 fold change and 0.2227 fold change
MMP-1, Fold change vs GAPDH (AGS cells [6]; Fig. 3C, replicate values): 528.599 fold change and 466.082 fold change and 599.501 fold change
Fold change MAP2K3 vs GAPDH (AGS cells [6]; Fig. 4B, replicate values): 14.3277 fold change and 13.4406 fold change and 15.2735 fold change
MKI67 Fold change vs GAPDH (AGS cells [6]; Fig. S4C): 0.8471 fold change and 0.6697 fold change and 1.072 fold change
TNFRSF10D Fold change vs GAPDH (AGS cells [6]; Fig. S4C): 16.1948 fold change and 12.3693 fold change and 21.2034 fold change
CAT (Fold change vs GAPDH) (AGS cells [6]; mRNA vs Control = 1): 0.4383 Fold change and 0.3857 Fold change and 0.4982 Fold change
SOD1 (Fold change vs GAPDH) (AGS cells [6]; mRNA vs Control = 1): 1.81 Fold change and 1.501 Fold change and 2.182 Fold change
SOD2 (Fold change vs GAPDH) (AGS cells [6]; mRNA vs Control = 1): 0.6611 Fold change and 0.5938 Fold change and 0.736 Fold change
Cell Viability without NAC (PANC1 cells [7]; dose 10 µM): 77.9259 and 88.6605 and 70.8131
Cell Viability without NAC (PANC1 cells [7]; dose 25 µM): 47.4239 and 33.5177 and 35.073
Cell Viability without NAC (PANC1 cells [7]; dose 50 µM): 47.9877 and 31.0793 and 43.6951
IC50 (PANC1 cells [7]; PANC1, NAC (+) 0.5 mM): > 100 µM
IC50 (PANC1 cells [7]; PANC1, NAC (-)): 20 µM and 18.8 µM
Cell Viability without NAC (MKN45 cells [8]; dose 7.5 µM): 99.1588 and 99.2583 and 108.83
Cell Viability without NAC (MKN45 cells [8]; dose 18.7 µM): 103.308 and 97.338 and 102.412
Cell Viability without NAC (MKN45 cells [8]; dose 37.4 µM): 85.458 and 67.9963 and 88.4728
Cell Viability without NAC (MKN45 cells [8]; dose 56.1 µM): 58.2655 and 42.2365 and 52.8031
Cell Viability without NAC (MKN45 cells [8]; dose 74.8 µM): 41.9977 and 31.3714 and 39.5202
IC50 (MKN45 cells [8]; MKN45, NAC (+) 0.5 mM): > 100 µM
IC50 (MKN45 cells [8]; MKN45, NAC (-)): 56.8 ± 1.53 µM
IC25 concentration (AGS cells [9]; AGS): 15 µM
Cell Viability without NAC (AGS cells [9]; dose 10 µM): 105.035
Cell Viability without NAC (AGS cells [9]; dose 50 µM): 68.1853
Cell Viability without NAC (AGS cells [9]; dose 75 µM): 30.4823
IC50 (AGS cells [9]; AGS, NAC (+) 0.5 mM): > 100 µM
IC50 (AGS cells [9]; AGS, NAC (-)): 50 µM and 51.5 µM
